Values quoted from earlier work, collected in patent publication US20020127223A1, “Method for reducing side effects of a drug” (priority 1984, published 2002).

Conditions: administered 3 hours following methotrexate

## Nc1nc(=O)c2c([nH]1)NCC(CNc1ccc(C(=O)N[C@@H](CCC(=O)O)C(=O)O)cc1)N2C=O (mixture of isomers) [folinic acid]
  Attenuation of the toxic effects of methotrexate: attenuate the toxic effects of methotrexate
